Source: ChEMBL document CHEMBL1201861, “Genomics of Drug Sensitity in Cancer screening data, Wellcome Trust Sanger Institute”
Structures can show the parent of a compound that is named as a salt.

Columns and labels:
Experiment in all cases: cells
COLO-824 = format: functional, cell-based, Homo sapiens; conditions: Homo sapiens, COLO-824
Description: SANGER: Inhibition of human COLO-824 cell growth in a cell viability assay.

COR-L88 = format: functional, cell-based, Homo sapiens; conditions: Homo sapiens, COR-L88
Description: SANGER: Inhibition of human COR-L88 cell growth in a cell viability assay.

D-502MG = format: functional, cell-based, Homo sapiens; conditions: Homo sapiens, D-502MG
Description: SANGER: Inhibition of human D-502MG cell growth in a cell viability assay.

DJM-1 = format: functional, cell-based, Homo sapiens; conditions: Homo sapiens, DJM-1
Description: SANGER: Inhibition of human DJM-1 cell growth in a cell viability assay.

DMS-114 = format: functional, cell-based, Homo sapiens; conditions: Homo sapiens, DMS-114
ES5 = format: functional, cell-based, Homo sapiens; conditions: Homo sapiens, ES5
Description: SANGER: Inhibition of human ES5 cell growth in a cell viability assay.

EW-18 = format: functional, cell-based, Homo sapiens; conditions: Homo sapiens, EW-18
Description: SANGER: Inhibition of human EW-18 cell growth in a cell viability assay.

GI-1 = format: functional, cell-based, Homo sapiens; conditions: Homo sapiens, GI-1
Description: SANGER: Inhibition of human GI-1 cell growth in a cell viability assay.

HC-1 = format: functional, cell-based, Homo sapiens; conditions: Homo sapiens, HC-1
Description: SANGER: Inhibition of human HC-1 cell growth in a cell viability assay.

HCC1187 = format: functional, cell-based, Homo sapiens; conditions: Homo sapiens, HCC1187
Description: SANGER: Inhibition of human HCC1187 cell growth in a cell viability assay.

HH = format: functional, cell-based, Homo sapiens; conditions: Homo sapiens, HH
Description: SANGER: Inhibition of human HH cell growth in a cell viability assay.

HuTu80 = format: functional, cell-based, Homo sapiens, HUTU-80; conditions: Homo sapiens, HuTu80
Description: SANGER: Inhibition of human HUTU-80 cell growth in a cell viability assay.

K5 = format: functional, cell-based, Homo sapiens; conditions: Homo sapiens, K5
Description: SANGER: Inhibition of human K5 cell growth in a cell viability assay.

KALS-1 = format: functional, cell-based, Homo sapiens; conditions: Homo sapiens, KALS-1
Description: SANGER: Inhibition of human KALS-1 cell growth in a cell viability assay.

KARPAS-299 = format: functional, cell-based, Homo sapiens; conditions: Homo sapiens, KARPAS-299
Description: SANGER: Inhibition of human KARPAS-299 cell growth in a cell viability assay.

KE-37 = format: functional, cell-based, Homo sapiens; conditions: Homo sapiens, KE-37
Description: SANGER: Inhibition of human KE-37 cell growth in a cell viability assay.

KM-H2 = format: functional, cell-based, Homo sapiens; conditions: Homo sapiens, KM-H2
Description: SANGER: Inhibition of human KM-H2 cell growth in a cell viability assay.

KNS-42 = format: functional, cell-based, Homo sapiens; conditions: Homo sapiens, KNS-42
Description: SANGER: Inhibition of human KNS-42 cell growth in a cell viability assay.

LB2518-MEL = format: functional, cell-based, Homo sapiens; conditions: Homo sapiens, LB2518-MEL
Description: SANGER: Inhibition of human LB2518-MEL cell growth in a cell viability assay.

LB771-HNC = format: functional, cell-based, Homo sapiens; conditions: Homo sapiens, LB771-HNC
Description: SANGER: Inhibition of human LB771-HNC cell growth in a cell viability assay.

LB831-BLC = format: functional, cell-based, Homo sapiens; conditions: Homo sapiens, LB831-BLC
Description: SANGER: Inhibition of human LB831-BLC cell growth in a cell viability assay.

LOX IMVI = format: functional, cell-based, Homo sapiens; conditions: Homo sapiens, LOX IMVI
Description: SANGER: Inhibition of human LOXIMVI cell growth in a cell viability assay.

LS-1034 = format: functional, cell-based, Homo sapiens; conditions: Homo sapiens, LS-1034
Description: SANGER: Inhibition of human LS-1034 cell growth in a cell viability assay.

LU-139 = format: functional, cell-based, Homo sapiens; conditions: Homo sapiens, LU-139
Description: SANGER: Inhibition of human LU-139 cell growth in a cell viability assay.

Lu-65 = format: functional, cell-based, Homo sapiens; conditions: Homo sapiens, Lu-65
Description: SANGER: Inhibition of human LU-65 cell growth in a cell viability assay.

MHH-NB-11 = format: functional, cell-based, Homo sapiens; conditions: Homo sapiens, MHH-NB-11
Description: SANGER: Inhibition of human MHH-NB-11 cell growth in a cell viability assay.

MOLT-16 = format: functional, cell-based, Homo sapiens; conditions: Homo sapiens, MOLT-16
Description: SANGER: Inhibition of human MOLT-16 cell growth in a cell viability assay.

MSTO-211H = format: functional, cell-based, Homo sapiens; conditions: Homo sapiens, MSTO-211H
Description: SANGER: Inhibition of human MSTO-211H cell growth in a cell viability assay.

NB10 = format: functional, cell-based, Homo sapiens; conditions: Homo sapiens, NB10
Description: SANGER: Inhibition of human NB10 cell growth in a cell viability assay.

NCI-H1648 = format: functional, cell-based, Homo sapiens; conditions: Homo sapiens, NCI-H1648
Description: SANGER: Inhibition of human NCI-H1648 cell growth in a cell viability assay.

NCI-H1650 = format: functional, cell-based, Homo sapiens; conditions: Homo sapiens, NCI-H1650
Description: SANGER: Inhibition of human NCI-H1650 cell growth in a cell viability assay.

NCI-H226 = format: functional, cell-based, Homo sapiens; conditions: Homo sapiens, NCI-H226
Description: SANGER: Inhibition of human NCI-H226 cell growth in a cell viability assay.

NCI-H82 = format: functional, cell-based, Homo sapiens; conditions: Homo sapiens, NCI-H82
Description: SANGER: Inhibition of human NCI-H82 cell growth in a cell viability assay.

SNU-5 = format: functional, cell-based, Homo sapiens; conditions: Homo sapiens, SNU-5
Description: SANGER: Inhibition of human NCI-SNU-5 cell growth in a cell viability assay.

NEC8 = format: functional, cell-based, Homo sapiens; conditions: Homo sapiens, NEC8
Description: SANGER: Inhibition of human NEC8 cell growth in a cell viability assay.

OMC-1 = format: functional, cell-based, Homo sapiens; conditions: Homo sapiens, OMC-1
Description: SANGER: Inhibition of human OMC-1 cell growth in a cell viability assay.

OVCAR-4 = format: functional, cell-based, Homo sapiens; conditions: Homo sapiens, OVCAR-4
Description: SANGER: Inhibition of human OVCAR-4 cell growth in a cell viability assay.

RS4-11 = format: functional, cell-based, Homo sapiens; conditions: Homo sapiens, RS4-11
Description: SANGER: Inhibition of human RS4-11 cell growth in a cell viability assay.

Ramos-2G6-4C10 = format: functional, cell-based, Homo sapiens; conditions: Homo sapiens, Ramos-2G6-4C10
Description: SANGER: Inhibition of human Ramos-2G6-4C10 cell growth in a cell viability assay.

SCH = format: functional, cell-based, Homo sapiens; conditions: Homo sapiens, SCH
Description: SANGER: Inhibition of human SCH cell growth in a cell viability assay.

SJSA-1 = format: functional, cell-based, Homo sapiens; conditions: Homo sapiens, SJSA-1
Description: SANGER: Inhibition of human SJSA-1 cell growth in a cell viability assay.

SNB-75 = format: functional, cell-based, Homo sapiens; conditions: Homo sapiens, SNB-75
Description: SANGER: Inhibition of human SNB75 cell growth in a cell viability assay.

ALL-PO = format: functional, cell-based, Homo sapiens; conditions: Homo sapiens, ALL-PO
Description: SANGER: Inhibition of human ALL-PO cell growth in a cell viability assay.

AM-38 = format: functional, cell-based, Homo sapiens; conditions: Homo sapiens, AM-38
Description: SANGER: Inhibition of human AM-38 cell growth in a cell viability assay.

ATN-1 = format: functional, cell-based, Homo sapiens; conditions: Homo sapiens, ATN-1
Description: SANGER: Inhibition of human ATN-1 cell growth in a cell viability assay.

BB30-HNC = format: functional, cell-based, Homo sapiens; conditions: Homo sapiens, BB30-HNC
Description: SANGER: Inhibition of human BB30-HNC cell growth in a cell viability assay.

TE-11 = format: functional, cell-based, Homo sapiens; conditions: Homo sapiens, TE-11
Description: SANGER: Inhibition of human TE-11 cell growth in a cell viability assay.

TGBC24TKB = format: functional, cell-based, Homo sapiens; conditions: Homo sapiens, TGBC24TKB
Description: SANGER: Inhibition of human TGBC24TKB cell growth in a cell viability assay.

TGW = format: functional, cell-based, Homo sapiens; conditions: Homo sapiens, TGW
Description: SANGER: Inhibition of human TGW cell growth in a cell viability assay.

## COc1cc2ncn(-c3cc(OCc4ccccc4C(F)(F)F)c(C(N)=O)s3)c2cc1OC [GW843682X]
COLO-824
  IC50: > 256 nM
COR-L88
  IC50: 78.4 nM
D-502MG
  IC50: > 256 nM
DJM-1
  IC50: 60.6 nM
DMS-114
  IC50: 122 nM
ES5
  IC50: > 256 nM
EW-18
  IC50: > 256 nM
GI-1
  IC50: 7.3 nM
HC-1
  IC50: 26.2 nM
HCC1187
  IC50: 122 nM
HH
  IC50: 98.8 nM
HuTu80
  IC50: 22.3 nM
K5
  IC50: 72.7 nM
KALS-1
  IC50: 22.5 nM
KARPAS-299
  IC50: 94.3 nM
KE-37
  IC50: 4.77 nM
KM-H2
  IC50: 20.5 nM
KNS-42
  IC50: 24.7 nM
LB2518-MEL
  IC50: 107 nM
LB771-HNC
  IC50: 60 nM
LB831-BLC
  IC50: 200 nM
LOX IMVI
  IC50: 125 nM
LS-1034
  IC50: 59.7 nM
LU-139
  IC50: 65.6 nM
Lu-65
  IC50: > 256 nM
MHH-NB-11
  IC50: 227 nM
MOLT-16
  IC50: 31.5 nM
MSTO-211H
  IC50: > 256 nM
NB10
  IC50: > 256 nM
NCI-H1648
  IC50: 14.4 nM
NCI-H1650
  IC50: > 256 nM
NCI-H226
  IC50: > 256 nM
NCI-H82
  IC50: 15.2 nM
SNU-5
  IC50: 52 nM
NEC8
  IC50: 48.7 nM
OMC-1
  IC50: > 256 nM
OVCAR-4
  IC50: 71.5 nM
RS4-11
  IC50: 12.8 nM
Ramos-2G6-4C10
  IC50: 37.4 nM
SCH
  IC50: > 256 nM
SJSA-1
  IC50: 32.7 nM
SNB-75
  IC50: 97.9 nM
ALL-PO
  IC50: 8.76 nM
AM-38
  IC50: > 256 nM
ATN-1
  IC50: 24.1 nM
BB30-HNC
  IC50: 34.1 nM
TE-11
  IC50: 10.7 nM
TGBC24TKB
  IC50: 45 nM
TGW
  IC50: 34.7 nM

## COC1=CC(c2cc3ccccc3[nH]2)=N/C1=C\c1[nH]c(C)cc1C [OBATOCLAX MESYLATE]
COLO-824
  IC50: 678 nM
COR-L88
  IC50: > 16000 nM
D-502MG
  IC50: 6320 nM
DJM-1
  IC50: 175 nM
DMS-114
  IC50: 1270 nM
ES5
  IC50: 605 nM
EW-18
  IC50: 130 nM
GI-1
  IC50: 275 nM
HC-1
  IC50: 1930 nM
HCC1187
  IC50: 1710 nM
HH
  IC50: 707 nM
HuTu80
  IC50: 104 nM
K5
  IC50: 532 nM
KALS-1
  IC50: 600 nM
KARPAS-299
  IC50: > 16000 nM
KE-37
  IC50: < 62.5 nM
KM-H2
  IC50: 701 nM
KNS-42
  IC50: 400 nM
LB2518-MEL
  IC50: 234 nM
LB771-HNC
  IC50: 103 nM
LB831-BLC
  IC50: 444 nM
LOX IMVI
  IC50: 61.9 nM
LS-1034
  IC50: 658 nM
LU-139
  IC50: 6080 nM
Lu-65
  IC50: 1090 nM
MHH-NB-11
  IC50: 3440 nM
MOLT-16
  IC50: 1730 nM
MSTO-211H
  IC50: 4840 nM
NB10
  IC50: 2820 nM
NCI-H1648
  IC50: 113 nM
NCI-H1650
  IC50: 3780 nM
NCI-H226
  IC50: 66.3 nM
NCI-H82
  IC50: 3340 nM
SNU-5
  IC50: 856 nM
NEC8
  IC50: 55.9 nM
OMC-1
  IC50: 721 nM
OVCAR-4
  IC50: 206 nM
RS4-11
  IC50: 85 nM
Ramos-2G6-4C10
  IC50: 129 nM
SCH
  IC50: > 16000 nM
SJSA-1
  IC50: 147 nM
SNB-75
  IC50: 557 nM
ALL-PO
  IC50: 242 nM
AM-38
  IC50: 192 nM
ATN-1
  IC50: 167 nM
BB30-HNC
  IC50: < 62.5 nM
TE-11
  IC50: 302 nM
TGBC24TKB
  IC50: 3680 nM
TGW
  IC50: 17.4 nM
